Reference: PMC7687008, “Small molecule inhibitors provide insights into the relevance of LAT1 and LAT2 in materno‐foetal amino acid transport” (Journal of Cellular and Molecular Medicine, 2020)
Values joined by “and” are separate entries in the source; they are usually repeats but may differ in a detail not shown here. Equal values may be shown once. “Also recorded” adds a separate entry of the source. Read-outs that look alike come from different tables or passages of the source.

How the values were obtained:
[1] = target: SLC7 transporters in HT-29 cells (Homo sapiens, UniProt Q01650); assay: Leucine uptake inhibition in HT-29 cells; conditions: for EC50: EC50 of leucine uptake inhibition, Na+-free Hanks buffer
[2] = tested on: LAT1/LAT2 (System L transporters) in BeWo-STB cells; assay: Leucine uptake inhibition in BeWo-STB (forskolin-differentiated BeWo cells), Na+-free buffer, 3H-leucine; type: cell-based, human; conditions: for inhibition of leucine uptake / EC50: BeWo-STB; for inhibition of leucine uptake: 10 µmol/L inhibitor; for EC50: 3 min; for residual leucine uptake: 10 µM
Description: (§1) BeWo cells (clone b30) were cultured in DMEM containing 1.0 g/L glucose (DMEM‐lowGlucose; Gibco). […] Cells were cultured in DMEM‐lowGlucose at 37°C with 5% CO2 atmosphere for 7‐14 days.
JPH203, JG336 and JX009 were synthesized following the routes described in the European Patent Application EP 2‐959‐918‐A1, 2014. Compounds were obtained as hydrochlorides, dissolved in dimethyl sulfoxide (DMSO, Merck, Darmstadt, Germany) and applied in the concentration range from 0.001 to 31.6 μmol/L. JPH203 has been characterized as highly LAT1‐specific; JX009 is described as LAT1 and LAT2‐specific inhibitor. ^37 JG336 is a derivate of JPH203 with an additional methoxy group at the peripheral phenyl moiety residue. Compound structures are depicted in Figure 4. The ^1H‐NNMR and ^13C‐NMR spectra data of the compounds were in agreement with the expected structures and are included in the Supporting Information.
FIGURE 4 Inhibition of leucine uptake in BeWo cells using small molecule inhibitors with different specificities. Dose‐response experiments in BeWo‐cytotrophoblasts (BeWo‐CTB) and forskolin‐stimulated BeWo‐syncytiotrophoblasts (BeWo‐STB) for the established LAT1‐specific inhibitor JPH203 (A) and for the alternative compound JG336 which carries an additional methoxy group as marked in the dashed red box (B). […] BCH is a widely accepted inhibitor blocking all System L mediated transport. […] (A‐C) The new inhibitors JG336 and JX009 as well as JPH203 reached maximal inhibition (first concentration without significant difference to the bottom value) at a concentration of 10 µmol/L, JG336 required 1 µmol/L for maximal inhibition in BeWo‐CTB. BCH reached maximal inhibition at 1 mmol/L in both differentiation stages. […] Dose‐response kinetics were calculated using the nonlinear four‐parameter model [Y = Bottom + (Top − Bottom)/(1 + 10^((LogEC50‐X)*HillSlope))] and ordinary fit with GraphPad Prism software.

[3] = target: LAT1/LAT2 (System L transporters) in BeWo-CTB cells (Homo sapiens, UniProt Q01650); assay: Leucine uptake inhibition in BeWo-CTB (undifferentiated BeWo cells), Na+-free buffer, 3H-leucine; type: cell-based; conditions: for EC50: 3 min
[4] = tested on: LAT1/LAT2 (System L transporters) in polarized BeWo monolayer; assay: Leucine transfer across polarized BeWo monolayer (Transwell), apical to basal, and intracellular leucine content; type: cell-based, human
Description: as §1
Before starting the transfer experiment, the formation of a tight trophoblast monolayer in BeWo cells was monitored by measuring transepithelial electrical resistance (TEER, [Ω*cm^2]) and passive diffusion as reported previously. ^38 TEER and cellular capacitance (Ccl, [µF/cm^2]) were measured every 30 minutes and analysed using the cellZscope system (nanoAnalytics, Münster, Germany) according to the manufacturer's instructions. The apparent permeability coefficient (Papp, [cm/s]) was calculated by measuring the rates of passive transfer of the paracellular pathway marker Lucifer yellow (LY) as previously described. ^39 BeWo monolayers with verified tightness were selected after 7 days of culturing on Transwell® membranes and randomly assigned to leucine transfer time courses and inhibition experiments. […] Radioactivity was quantified using Tri‐carb 2100TR Liquid Scintillation Counter (PerkinElmer).
FIGURE 5 Relevance of LAT1 and System L inhibition in leucine transfer across the placental barrier in vitro. A, Leucine transfer across a tight BeWo monolayer was measured from the apical (ie upper compartment) towards the basal (ie lower compartment) side during 6 h using the Transwell® system. […]

[5] = tested on: Caco-2 cells; design: method as in PMID 21914964; conditions: cited from earlier work
[6] = 167 µmol/L leucine, Na+-free Hank's buffer, read-out: EC50 of leucine uptake inhibition
[7] = 167.2 µmol/L leucine, four-parameter fit, read-out: EC50 (best-fit value in Figure 4)
[8] = BeWo-CTB, 167 µmol/L leucine, Na+-free Hank's buffer, read-out: EC50 of leucine uptake inhibition
[9] = BeWo-CTB, 167.2 µmol/L leucine, four-parameter fit, read-out: EC50 (best-fit value in Figure 4)

Sequence of SLC7 transporters in HT-29 cells (Q01650 whole entry): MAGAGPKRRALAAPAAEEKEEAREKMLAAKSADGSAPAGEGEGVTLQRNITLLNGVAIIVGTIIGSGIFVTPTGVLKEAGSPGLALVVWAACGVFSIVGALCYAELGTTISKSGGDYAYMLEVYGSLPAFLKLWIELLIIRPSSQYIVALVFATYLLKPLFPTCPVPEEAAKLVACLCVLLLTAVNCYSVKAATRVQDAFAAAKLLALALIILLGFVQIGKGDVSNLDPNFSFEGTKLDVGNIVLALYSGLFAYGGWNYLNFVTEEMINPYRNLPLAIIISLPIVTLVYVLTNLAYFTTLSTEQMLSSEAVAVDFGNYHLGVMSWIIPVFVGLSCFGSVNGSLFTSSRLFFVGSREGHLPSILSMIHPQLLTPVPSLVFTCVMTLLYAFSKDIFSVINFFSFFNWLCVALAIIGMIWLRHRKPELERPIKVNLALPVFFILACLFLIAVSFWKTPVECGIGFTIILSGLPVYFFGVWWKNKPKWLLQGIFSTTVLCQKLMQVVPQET
Sequence of SLC7 transporters in HT-29 cells (P08195 102-630 partner): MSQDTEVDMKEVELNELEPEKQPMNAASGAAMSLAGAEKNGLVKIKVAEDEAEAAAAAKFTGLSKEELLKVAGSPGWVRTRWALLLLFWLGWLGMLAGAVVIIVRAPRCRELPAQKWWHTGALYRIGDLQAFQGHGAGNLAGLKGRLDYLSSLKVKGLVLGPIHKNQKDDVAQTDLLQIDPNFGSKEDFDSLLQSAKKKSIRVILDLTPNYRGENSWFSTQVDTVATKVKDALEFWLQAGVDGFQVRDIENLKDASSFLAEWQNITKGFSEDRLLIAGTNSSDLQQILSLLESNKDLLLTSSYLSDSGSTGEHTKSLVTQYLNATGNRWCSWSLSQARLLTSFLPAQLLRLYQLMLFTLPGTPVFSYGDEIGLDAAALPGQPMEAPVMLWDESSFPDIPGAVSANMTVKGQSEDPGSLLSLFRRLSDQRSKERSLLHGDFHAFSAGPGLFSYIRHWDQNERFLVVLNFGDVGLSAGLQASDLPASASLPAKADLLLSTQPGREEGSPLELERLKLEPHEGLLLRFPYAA
Sequence of LAT1/LAT2 (System L transporters) in BeWo-CTB cells (Q01650 whole entry): as the sequence (Q01650 whole entry) above
Sequence of LAT1/LAT2 (System L transporters) in BeWo-CTB cells (P08195 103-630 partner): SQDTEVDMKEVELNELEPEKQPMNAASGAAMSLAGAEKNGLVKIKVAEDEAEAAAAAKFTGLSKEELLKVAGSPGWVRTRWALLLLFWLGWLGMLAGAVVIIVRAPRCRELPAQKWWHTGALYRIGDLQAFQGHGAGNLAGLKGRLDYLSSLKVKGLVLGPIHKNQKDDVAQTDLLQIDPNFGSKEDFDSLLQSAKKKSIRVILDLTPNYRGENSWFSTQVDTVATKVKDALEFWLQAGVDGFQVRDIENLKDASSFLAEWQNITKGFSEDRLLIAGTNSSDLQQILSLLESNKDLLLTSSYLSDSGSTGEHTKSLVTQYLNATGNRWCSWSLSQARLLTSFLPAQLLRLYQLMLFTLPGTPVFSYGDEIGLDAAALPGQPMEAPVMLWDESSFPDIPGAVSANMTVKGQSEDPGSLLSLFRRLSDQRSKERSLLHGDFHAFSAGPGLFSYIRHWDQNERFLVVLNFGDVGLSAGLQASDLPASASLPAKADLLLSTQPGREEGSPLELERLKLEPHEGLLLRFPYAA

Row | Compound | extent of leucine uptake inhibition ([1]; 167µM leucine) | EC50 ([1]; 30µM leucine) [µM] | EC50 ([1]; 167µM leucine, 3min) [µM] | Bottom of dose-response fit (leucine uptake at maximal inhibition) [2] [nmol/mg protein] | Top of dose-response fit (leucine uptake) [2] [nmol/mg protein] | concentration reaching maximal inhibition (first concentration without significant difference to bottom value) [2] [µmol/L] | inhibition of leucine uptake [2] | EC50 [2, 6] | EC50 [2, 7] [µM] | EC50 [3, 8] | EC50 [3, 9] [µM] | Bottom of dose-response fit (leucine uptake at maximal inhibition) ([3]; BeWo-CTB, four-parameter fit) [nmol/mg protein] | Top of dose-response fit (leucine uptake) ([3]; BeWo-CTB, four-parameter fit) [nmol/mg protein] | residual leucine uptake [2] [nmol/mg protein] | other results
1 | CN(C)c1ccc(-c2cccc(Oc3cccc(C[C@H](N)C(=O)O)c3)c2)cn1 [JX009] | complete leucine uptake inhibition | 0.6 | 3.76 | 1.093 | 8.426 | 10 | 87% | 2.35 µM and 2.3 µM | 2.35 | 3.9 µM and < 4 µM | 3.86 | 0.774 | 4.066 |  | inhibition of leucine uptake ([3]; BeWo-CTB (regardless of differentiation stage)): 87%; decrease of intracellular 3H-leucine content of BeWo monolayer ([4]; 10 µM): no effect; decrease of intracellular 3H-leucine content of BeWo monolayer ([4]; 10 µmol/L, end of transfer experiment (6 hours)): intracellular leucine retention; also recorded: unchanged
2 | Nc1cc(COc2c(Cl)cc(C[C@H](N)C(=O)O)cc2Cl)c2oc(-c3ccccc3)nc2c1 [JPH203] | complete leucine uptake inhibition | 0.15 | 2.17 | 3.758 | 8.593 | 10 | 56.3% and 56% | 2.55 µM and 2.6 µM |  | 3.1 µM | 3.08 | 0.716 | 3.888 | 3.8 | permeability (membrane and cell layer) [5]: has been shown
3 | NC1(C(=O)O)CC2CCC1C2 (stereo not drawn) [BCH, 2‐amino‐2‐norbornane‐carboxylic acid] |  |  |  | 0 | 9.770 |  |  | 442 µM | 442 |  |  | 0 | 5.305 |  | times less effective than JX009 [2]: > 100 times; EC50 ([3]; read-out: EC50 (best-fit value in Figure 4), BeWo-CTB, 167.2 µmol/L leucine, four-parameter fit): 709 µM; EC50 ([3]; read-out: EC50 of leucine uptake inhibition, BeWo-CTB, 167 µmol/L leucine, Na+-free Hank's buffer): 709 µM
4 | COc1ccc(-c2nc3cc(N)cc(COc4c(Cl)cc(C[C@H](N)C(=O)O)cc4Cl)c3o2)cc1 [JG336] | complete leucine uptake inhibition | 0.21 | 0.73 | 3.212 | 8.534 | 10 | 62.4% and 62% | 1.99 µM and 2 µM | 1.99 | 0.8 µM | 0.799 | 0.622 | 2.673 | 3.2 | concentration required for maximal inhibition ([3]; BeWo-CTB): 1 µmol/L
